ChEMBL document CHEMBL1201862, “PubChem BioAssay data set” (2004)
Active and inactive are the calls of the source.

Target: Cytochrome P450 3A4 (Homo sapiens, UniProt P08684);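 note: CYP3A4 tested as one member of a cytochrome P450 panel screen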
Assay: not given
Settings: not given

Sequence of Cytochrome P450 3A4 (P08684 whole entry): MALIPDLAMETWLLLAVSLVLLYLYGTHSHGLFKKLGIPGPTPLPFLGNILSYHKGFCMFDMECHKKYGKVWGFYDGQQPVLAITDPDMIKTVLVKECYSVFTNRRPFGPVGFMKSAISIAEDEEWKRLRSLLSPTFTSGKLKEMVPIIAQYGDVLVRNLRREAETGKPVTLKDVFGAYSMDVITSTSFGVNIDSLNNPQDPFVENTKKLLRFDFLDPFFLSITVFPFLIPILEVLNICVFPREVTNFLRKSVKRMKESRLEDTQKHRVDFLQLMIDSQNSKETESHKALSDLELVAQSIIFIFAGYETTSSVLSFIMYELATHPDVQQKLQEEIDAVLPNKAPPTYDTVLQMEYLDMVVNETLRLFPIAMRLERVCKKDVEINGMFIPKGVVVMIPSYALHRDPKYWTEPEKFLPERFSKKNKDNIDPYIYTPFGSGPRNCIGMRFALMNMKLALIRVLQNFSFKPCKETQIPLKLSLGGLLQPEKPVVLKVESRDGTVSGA

SMILES	AC50
CCOC(=O)c1cnn(-c2ccccc2)c1-n1cccc1C(=O)C(=O)Nc1ccccc1C(F)(F)F	4.47 µM (inconclusive)

System: INS1
Assay: INS-1E survival protection against cytokine death – cell-based, luminescence, retest, dose response (AID 449756);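 note: cell death triggered by IL-1 beta plus TNF-alpha plus IFN-gamma mixture; protective hits raise ATP signal compared with cytokine alone wells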
Format: functional
Settings: Rattus norvegicus

SMILES	AC50
Cc1cc(C(=O)C(C)OC(=O)c2ccc(NC(=O)CC#N)cc2)c(C)n1-c1ccc(OC(F)F)cc1 (configuration not stated)	4.26 µM (active)
CCOc1ccc2nc(NC(=O)c3cccc(-c4cc5ccccc5oc4=O)c3)sc2c1	3.24 µM (active)
C/C(=N\NC(=O)c1ccoc1C)c1ccccc1O	3.12 µM (active)

Target: T1, Rac GTPase-activating protein 1 (Homo sapiens, UniProt Q9H0H5)
T1 sequence (Q9H0H5 whole entry): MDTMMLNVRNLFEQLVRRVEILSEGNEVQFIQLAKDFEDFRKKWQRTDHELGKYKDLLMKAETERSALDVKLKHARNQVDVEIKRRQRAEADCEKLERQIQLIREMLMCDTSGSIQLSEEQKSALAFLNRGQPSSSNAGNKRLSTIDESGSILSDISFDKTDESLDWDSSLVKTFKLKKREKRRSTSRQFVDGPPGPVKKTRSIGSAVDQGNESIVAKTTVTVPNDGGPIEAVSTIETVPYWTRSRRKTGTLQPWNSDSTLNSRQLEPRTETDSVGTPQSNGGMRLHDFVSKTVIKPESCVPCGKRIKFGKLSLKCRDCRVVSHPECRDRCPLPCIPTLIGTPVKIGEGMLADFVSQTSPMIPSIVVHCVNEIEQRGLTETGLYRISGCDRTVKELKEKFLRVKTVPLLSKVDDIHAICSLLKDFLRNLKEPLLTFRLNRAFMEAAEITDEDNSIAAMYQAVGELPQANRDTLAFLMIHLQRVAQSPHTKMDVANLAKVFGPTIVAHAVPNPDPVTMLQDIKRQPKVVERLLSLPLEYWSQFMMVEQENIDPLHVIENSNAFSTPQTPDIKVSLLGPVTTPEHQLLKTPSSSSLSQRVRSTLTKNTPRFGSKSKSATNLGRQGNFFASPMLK
Assay: blockers of MgcRacGAP-driven Rac1 GTP hydrolysis – biochemical, ADP Hunter fluorescence, primary and confirmatory, confirmation (AID 624330)
Format: functional
Settings: not given

SMILES	IC50
COc1cc(/C(C)=N/N2CCN(Cc3ccc(C)cc3)CC2)ccc1O	271 µM (active)

System: not listed separately
Assay: viability of HCT116 lacking mutant beta-catenin – cell-based, human colon tumor, dose response (AID 1045);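 note: HCT116 colon tumor cells with beta catenin knocked out; cells exposed to compound for 60 hours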
Format: functional
Settings: not given

SMILES	EC50
CCCCn1c(SCc2ncc(-c3ccccc3)o2)nc2cc(S(N)(=O)=O)ccc21	27.4 µM (active)

Target: Cytochrome P450 2C9 (Homo sapiens, UniProt P11712)
Sequence (P11712 whole entry): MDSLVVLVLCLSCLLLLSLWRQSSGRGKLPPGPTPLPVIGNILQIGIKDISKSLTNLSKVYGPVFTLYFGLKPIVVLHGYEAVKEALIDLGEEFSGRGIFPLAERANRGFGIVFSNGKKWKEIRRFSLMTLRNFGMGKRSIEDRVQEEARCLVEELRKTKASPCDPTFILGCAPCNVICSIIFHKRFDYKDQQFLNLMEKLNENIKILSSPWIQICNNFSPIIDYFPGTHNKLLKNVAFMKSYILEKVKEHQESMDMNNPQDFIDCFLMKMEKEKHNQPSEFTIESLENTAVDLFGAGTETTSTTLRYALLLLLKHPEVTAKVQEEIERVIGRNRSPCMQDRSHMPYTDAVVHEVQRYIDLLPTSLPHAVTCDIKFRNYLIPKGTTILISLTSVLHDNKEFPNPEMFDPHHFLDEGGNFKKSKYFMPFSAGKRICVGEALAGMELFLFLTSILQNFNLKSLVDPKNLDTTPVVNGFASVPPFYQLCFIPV
Assay: not given
Settings: not given

SMILES	AC50
CCOC(=O)c1cnn(-c2ccccc2)c1-n1cccc1C(=O)C(=O)Nc1ccccc1C(F)(F)F	5.62 µM (inconclusive)

System: not listed separately
Assay: cells
Format: functional
Settings: not given

SMILES	IC50
CC(C)Cc1nnc(NC(=O)CCS(=O)(=O)c2ccc(Cl)cc2)s1	36 µM (active)
CCOC(=O)c1cc(-c2cccc([N+](=O)[O-])c2)on1	10.3 µM (active)
COc1ccc(C(=O)COC(=O)COc2ccc(C)c(C)c2)cc1	> 50 µM (active)
COc1ccc(C(=O)OCn2nnc3ccccc3c2=O)cc1[N+](=O)[O-]	7.55 µM (active)
O=C(CCNc1ccc(Cl)cc1)c1cccs1	25.5 µM (active)
C=Cc1cccc(NC(=O)COc2ccccc2)c1	> 50 µM (active)

System: not listed separately
Assay: Luminescence Cell-Based Dose Response HTS to Identify Activators of Luciferase Translation or Activity in H4 […] Cells. [Related pubchem assays: 1829 (Project Summary), 1814 (Primary HTS)]
Format: functional
Settings: not given

SMILES	EC50
N#Cc1c(-c2ccc(Cl)cc2)ccn2nc(C3CCCCC3)nc12	6.98 µM (active)

System: not listed separately
Assay: microbe, parasite or virus in culture
Format: functional
Settings: Mycobacterium tuberculosis

SMILES	CC50
CCCCn1c(SCc2ncc(-c3ccccc3)o2)nc2cc(S(N)(=O)=O)ccc21	> 40 µM (active)
COc1cc(NC(=O)c2ccc(C(C)(C)C)cc2)c(OC)cc1NC(=O)CN1CCCCC1	> 40 µM (active)
C/N=c1\scc(-c2ccccc2Br)n1/N=C/c1ccc[nH]1	> 40 µM (active)
Oc1ccccc1/N=C/c1ccc[nH]1	> 40 µM (active)
CSc1nsc(/C=C/Nc2ccc(O)cc2C)c1C#N	> 40 µM (active)
Cc1ccc(NC(=S)N(CCCN2CCCC2)Cc2cccn2Cc2ccc(Cl)cc2)cc1C	17.7 µM (active)
COc1ccc(-c2ccnc3nc(N4CCN(c5ccccc5)CC4)nn23)cc1	> 40 µM (active)

System: not listed separately
Assay: viability of uninfected HEp-2 cells – cell-based, HTS, cytotoxicity control for RSV inhibitor project, dose response (AID 2410)
Format: functional
Settings: human respiratory syncytial virus

SMILES	CC50
CCOC(=O)c1cnn(-c2ccccc2)c1-n1cccc1C(=O)C(=O)Nc1ccccc1C(F)(F)F	24.1 µM (active)
OCCOCCn1c(CCNc2nc(-c3ccc(Cl)cc3)cs2)nc2cc(Cl)c(Cl)cc21	14.3 µM (active)
Cc1cccc(NC(=O)Cc2coc3ccc4ccccc4c23)n1	33.8 µM (active)
COC(=O)c1ccc(-c2ccco2)n1Cc1nc(-c2ccc(OC)c(OC)c2)oc1C	34 µM (active)
O=C1CCC(/C=C/c2ccccc2)=NN1Cc1ccc(Cl)c(Cl)c1	24.4 µM (active)
CCOc1cc(/C=N/NC(N)=O)cc(Br)c1OCc1ccccc1	19.4 µM (active)

Target: T2, Heat shock factor protein 1 (Mus musculus, UniProt P38532)
T2 sequence (P38532 whole entry): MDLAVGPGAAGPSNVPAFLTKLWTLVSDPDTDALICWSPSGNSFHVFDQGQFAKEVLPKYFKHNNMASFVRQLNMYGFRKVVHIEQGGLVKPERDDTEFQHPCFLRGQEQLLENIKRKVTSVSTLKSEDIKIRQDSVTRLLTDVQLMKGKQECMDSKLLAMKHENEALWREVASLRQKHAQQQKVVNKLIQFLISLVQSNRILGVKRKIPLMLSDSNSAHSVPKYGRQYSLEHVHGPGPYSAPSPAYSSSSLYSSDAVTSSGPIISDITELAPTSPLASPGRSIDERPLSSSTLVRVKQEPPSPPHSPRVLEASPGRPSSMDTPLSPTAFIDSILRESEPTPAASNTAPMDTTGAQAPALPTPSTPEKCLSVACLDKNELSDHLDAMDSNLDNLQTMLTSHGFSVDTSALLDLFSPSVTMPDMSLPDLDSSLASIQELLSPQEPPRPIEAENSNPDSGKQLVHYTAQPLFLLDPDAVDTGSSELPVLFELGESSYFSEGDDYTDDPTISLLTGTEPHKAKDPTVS
Assay: enhancement of HSF1-driven luciferase signal – cell-based, NIH3T3, luminescence, dose retest, confirmation (AID 435004);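 note: stress induced by proteasome inhibitor MG132 added 30 min after compound; luciferase reporter driven by HSF1 response element in NIH3T3 cells; actives raise luminescence as potentiators of the MG132 stress response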
Format: functional
Settings: not given

SMILES	EC50
COc1ccc(C2(C)NC(=O)N(CC3CCCCC3)C2=O)cc1 (configuration not stated)	> 260 µM (inactive)
COc1ccccc1-c1ccc(SCC(=O)Nc2cc(C)on2)nn1	> 260 µM (inactive)

System: not listed separately
Assay: viability of PTEN-deleted HCT116 cells – cell-based, HCT116 PTEN knockout, dose response (AID 1047);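 note: HCT116 colon tumor cells with PTEN knocked out; cells exposed to compound for 60 hours before readout; potency for loss of cell viability measured by luminescence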
Format: functional
Settings: not given

SMILES	EC50
CCCCn1c(SCc2ncc(-c3ccccc3)o2)nc2cc(S(N)(=O)=O)ccc21	26 µM (active)

Target: T3, Cytochrome P450 1A2 (Homo sapiens, UniProt P05177);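 note: PubChem cytochrome P450 panel assay, CYP1A2 panel member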
T3 sequence (P05177 whole entry): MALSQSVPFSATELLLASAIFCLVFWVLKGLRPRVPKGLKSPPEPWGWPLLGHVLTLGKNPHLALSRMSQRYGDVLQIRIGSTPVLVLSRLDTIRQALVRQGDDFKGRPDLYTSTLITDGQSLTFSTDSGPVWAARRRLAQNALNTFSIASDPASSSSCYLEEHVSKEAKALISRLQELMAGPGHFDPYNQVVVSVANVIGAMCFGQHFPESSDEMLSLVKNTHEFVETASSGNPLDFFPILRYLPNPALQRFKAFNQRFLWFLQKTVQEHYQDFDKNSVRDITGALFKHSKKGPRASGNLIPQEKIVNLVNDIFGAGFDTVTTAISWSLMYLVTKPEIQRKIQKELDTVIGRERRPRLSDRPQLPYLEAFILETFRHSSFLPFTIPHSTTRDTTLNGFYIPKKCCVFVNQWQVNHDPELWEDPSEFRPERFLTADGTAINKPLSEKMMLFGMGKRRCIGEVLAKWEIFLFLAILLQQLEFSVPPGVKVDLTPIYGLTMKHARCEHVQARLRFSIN
Assay: not given
Settings: not given

SMILES	AC50
CCOC(=O)c1cnn(-c2ccccc2)c1-n1cccc1C(=O)C(=O)Nc1ccccc1C(F)(F)F	14.1 µM (inconclusive)

Target: FAD-linked sulfhydryl oxidase ALR (Homo sapiens, UniProt P55789)
Sequence (P55789 whole entry): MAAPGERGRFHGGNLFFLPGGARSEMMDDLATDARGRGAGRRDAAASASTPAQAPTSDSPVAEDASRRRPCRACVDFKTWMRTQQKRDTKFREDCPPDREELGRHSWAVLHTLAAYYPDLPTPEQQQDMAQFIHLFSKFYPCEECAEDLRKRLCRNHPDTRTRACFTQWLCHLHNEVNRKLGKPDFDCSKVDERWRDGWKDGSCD
Assay: ALR-catalysed DTT oxidation blockers – biochemical, H2O2 detection, luminescence, cherry-pick, dose response (AID 493248)
Settings: not given

SMILES	AC50
COc1cc(/C(C)=N/N2CCN(Cc3ccc(C)cc3)CC2)ccc1O	7.66 µM (active)
